Assay results as given in patent publication US20030139469A1, “Use of inhibitors of soluble epoxide hydrolase to inhibit vascular smooth muscle cell proliferation” (THE REGENTS OF THE UNIVERSITY OF CALIFORNIA, priority 2002, published 2003).

How the values were obtained:
[1] = system: HTB-30 breast cancer cells; experiment: MTT assay HTB-30; type: cell-based; conditions: up to 40 μM
ERK42/44 phosphorylation = experiment: Western blot phospho-MAPK in VSM cells; type: cell-based, human; conditions: 10 μM, 4 h after PDGF-BB, FIG. 6
Procedure: Human VSM cells were grown to 80-90% confluence and serum-starved as in FIG. 1. Four hours after stimulation with PDGF-BB (30 ng/ml) in the presence or absence of CDU (10 μM), the cells were lysed and equal protein quantities were electrophoresed and immunoblotted with phospho-MAPK antibody. Data shown are representative of three independent experiments Western Blots. After treatment with appropriate compounds for the indicated times, cells were lysed, protein concentrations were determined by the Lowry method, and equal protein quantities were electrophoresed and Western blotted.

cyclin E = experiment: Western blot cyclin E in VSM cells; type: cell-based, human; conditions: 10 μM, PDGF-BB, 6 to 18 h, FIG. 7
Procedure: (§1) Human VSM cells were grown to 80-90% confluence and serum-starved as in FIG. 1. […] Data shown are representative of at least two independent experiments. Western Blots. After treatment with appropriate compounds for the indicated times, cells were lysed, protein concentrations were determined by the Lowry method, and equal protein quantities were electrophoresed and Western blotted.

VSM cells = experiment: thymidine uptake into VSM cells; type: cell-based, human; conditions: 12 μM CDU vs DMSO vehicle, seconds to minutes, FIG. 1e
Procedure: FIG. 1e. CDU at the indicated concentrations was added to non-serum-starved cells and uptake of thymidine into the cells was assessed at the indicated times after its addition as described in Example 1. Error bars represent SD; *p<0.05 compared to (for FIGS. 1a and 1d) PDGF alone or (for FIG. 1b) serum alone or (for FIG. 1e) DMSO. Data shown are representative of at least two independent experiments.
Thymidine Uptake. To quantify thymidine uptake, 1.73×10^4 cells were distributed per well in a 24-well plate. […] The media was then adjusted to […] ^3H-methyl-thymidine (1 mCi/mL, 25 Ci/mmol, Amersham-Pharmacia). At the indicated times, medium was aspirated, the cells were washed three times with ice-cold PBS, and then incubated in 500 μL 1 M NaOH for 20 min. The mixture was neutralized with 0.5 mL 1 M HCl and diluted into scintillation fluid for liquid scintillation counting.

human VSM cells [2] = experiment: direct counting of trypsinized VSM cells by hemocytometer; type: cell-based; conditions: 12 μM, 10% serum, FIG. 1c
Procedure: FIG. 1c. CDU (12 μM) or an equal volume of DMSO vehicle (as a control) was added concomitantly with 10% serum and the cells were counted by hemocytometer after trypsinization. Proliferation Assays. [^3H]thymidine incorporation assays were performed. To evaluate proliferation of suspension cells, cells were resuspended at 2×10^5 cells/mL in culture medium and the medium supplemented with the compound of interest or the corresponding vehicle. At the indicated times, cell density was estimated using light microscopy and a hemocytometer. To directly evaluate the proliferation of adherent cells, 2×10^4 cells were plated in a 35 mm culture dish and allowed to adhere overnight. The medium was then supplemented with the compound of interest or the corresponding vehicle. At the indicated times, the number of cells in the plate was calculated by subjecting the cells to trypsinization and the cell density quantitated by light microscopy using a hemocytometer.

cyclin D1 = experiment: Western blot cyclin D1 in VSM cells; type: cell-based, human; conditions: 10 μM, PDGF-BB, 6 to 18 h, vs DMSO vehicle, FIG. 7
Procedure: as §1

A549 lung cancer cells = experiment: MTT assay A549; type: cell-based; conditions: up to 40 μM
human VSM cells [3] = experiment: trypan blue exclusion, VSM cells; type: cell-based; conditions: 12 μM
Procedure: Evaluation of Cell Membrane Integrity and Toxicity. To evaluate the toxicity of compounds, as indicated by cellular trypan blue permeability, cells were plated in 35 mm dishes. After two days, the medium in the dish was replaced with fresh medium supplemented with the compound of interest or vehicle. At the indicated time post-treatment, the supernatant was removed and adherent cells were removed using trypsin. After dislodging the adherent cells, the cell suspension was pooled with the supernatant and centrifuged. The resulting cell pellet was resuspended and a trypan blue solution (0.4% in normal saline) was added to the aliquot. After incubating for approximately 5 minutes, the sample was evaluated by light microscopy. To evaluate lactate dehydrogenase (LDH) release, cells were harvested and plated onto 24 well plates and serum starved for one to two days. Test compounds were added and after 65 hours, media was removed for measurement of LDH activity. LDH activity was determined by NADH oxidation using Sigma Tox-7 in vitro toxicology kit and reported as the amount of LDH activity in the media.

[4] = system: LnCap prostate cancer cells; experiment: MTT assay LnCap; type: cell-based; conditions: up to 40 μM

SMILES: CCCCCCCCCCCCNC(=O)NC1CCCCC1 [CDU, 1-cyclohexyl-3-dodecyl urea]
- toxicity, MTT assay [1]: no toxicity observed
- PDGF-stimulated ERK42/44 phosphorylation (ERK42/44 phosphorylation): no change
- effect on cyclin E levels (cyclin E): minimal effect
- cellular uptake of thymidine (VSM cells): occurs to a similar extent
- cell proliferation by direct counting of trypsinized cells (human VSM cells [2]): Inhibition of cell proliferation
- induction of cyclin D1 levels (cyclin D1): profoundly decreased induction
- toxicity, MTT assay (A549 lung cancer cells): no toxicity observed
- cells stained blue (trypan blue) (human VSM cells [3]; 8 h): 3.4%
- cells stained blue (trypan blue) (human VSM cells [3]; 24 h): 3.0%
- toxicity, MTT assay [4]: no toxicity observed
